Assay results published in ChEMBL document CHEMBL1137793, “Synthesis and biological activity of analogs of fecapentaene-12” (J Nat Prod, 1987).

Tests used:
Details in all cases: salmonella enterica subsp. enterica serovar typhimurium
[1] = test system: Salmonella typhimurium; test: Toxicity in Salmonella Typhimurium TA98 at 10000 ng/plate after 48 hrs by Ames assay; format: organism-based
[2] = test system: Salmonella typhimurium; test: Toxicity in Salmonella Typhimurium TA98 at 5000 ng/plate after 48 hrs by Ames assay; format: organism-based
[3] = test system: Salmonella typhimurium; test: Mutagenic activity in Salmonella Typhimurium TA100 assessed as number of revertant colonies at 313 ng/plate after 48 hrs by Ames assay; format: toxicity, organism-based
[4] = test system: Salmonella typhimurium; test: Mutagenic activity in Salmonella Typhimurium TA100 assessed as number of revertant colonies at 156 ng/plate after 48 hrs by Ames assay; format: toxicity, organism-based
[5] = test system: Salmonella typhimurium; test: Mutagenic activity in Salmonella Typhimurium TA100 assessed as number of revertant colonies at 78 ng/plate after 48 hrs by Ames assay; format: toxicity, organism-based
[6] = test system: Salmonella typhimurium; test: Mutagenic activity in Salmonella Typhimurium TA100 assessed as number of revertant colonies at 36 ng/plate after 48 hrs by Ames assay; format: toxicity, organism-based
[7] = test system: Salmonella typhimurium; test: Toxicity in Salmonella Typhimurium TA100 at 10000 ng/plate after 48 hrs by Ames assay; format: organism-based
[8] = test system: Salmonella typhimurium; test: Toxicity in Salmonella Typhimurium TA100 at 5000 ng/plate after 48 hrs by Ames assay; format: organism-based
[9] = test system: Salmonella typhimurium; test: Toxicity in Salmonella Typhimurium TA100 at 2500 ng/plate after 48 hrs by Ames assay; format: organism-based
[10] = test system: Salmonella typhimurium; test: Mutagenic activity in Salmonella Typhimurium TA100 assessed as number of revertant colonies at 100000 ng/plate after 48 hrs by Ames assay; format: toxicity, organism-based
[11] = test system: Salmonella typhimurium; test: Mutagenic activity in Salmonella Typhimurium TA100 assessed as number of revertant colonies at 50000 ng/plate after 48 hrs by Ames assay; format: toxicity, organism-based
[12] = test system: Salmonella typhimurium; test: Mutagenic activity in Salmonella Typhimurium TA100 assessed as number of revertant colonies at 25000 ng/plate after 48 hrs by Ames assay; format: toxicity, organism-based
[13] = test system: Salmonella typhimurium; test: Mutagenic activity in aldehyde-sensitive Salmonella Typhimurium TA104 assessed as number of revertant colonies at 100000 ng/plate after 48 hrs by Ames assay; format: toxicity, organism-based
[14] = test system: Salmonella typhimurium; test: Mutagenic activity in aldehyde-sensitive Salmonella Typhimurium TA104 assessed as number of revertant colonies at 50000 ng/plate after 48 hrs by Ames assay; format: toxicity, organism-based
[15] = test system: Salmonella typhimurium; test: Mutagenic activity in aldehyde-sensitive Salmonella Typhimurium TA104 assessed as number of revertant colonies at 25000 ng/plate after 48 hrs by Ames assay; format: toxicity, organism-based
[16] = test system: Salmonella typhimurium; test: Mutagenic activity in Salmonella Typhimurium TA98 assessed as number of revertant colonies at 100000 ng/plate after 48 hrs by Ames assay; format: toxicity, organism-based
[17] = test system: Salmonella typhimurium; test: Mutagenic activity in Salmonella Typhimurium TA98 assessed as number of revertant colonies at 50000 ng/plate after 48 hrs by Ames assay; format: toxicity, organism-based
[18] = test system: Salmonella typhimurium; test: Toxicity in aldehyde-sensitive Salmonella Typhimurium TA104 at 10000 ng/plate after 48 hrs by Ames assay; format: organism-based
[19] = test system: Salmonella typhimurium; test: Toxicity in aldehyde-sensitive Salmonella Typhimurium TA104 at 5000 ng/plate after 48 hrs by Ames assay; format: organism-based
[20] = test system: Salmonella typhimurium; test: Toxicity in aldehyde-sensitive Salmonella Typhimurium TA104 at 2500 ng/plate after 48 hrs by Ames assay; format: organism-based

CC/C=C/C=C/C=C/C=C/C=C/OC[C@@H](O)CO
Activity [1]: Toxic | Activity [2]: Toxic | Activity [3]: 612 | Activity [4]: 459 | Activity [5]: 306 | Activity [6]: 187 | Activity [7]: Toxic | Activity [8]: Toxic | Activity [9]: Toxic

CC/C=C/C=C/C=C/C=C/C=O
Activity [10]: 221 | Activity [11]: 187 | Activity [12]: 185 | Activity [13]: 181 | Activity [14]: 186 | Activity [15]: 165 | Activity [16]: 23 | Activity [17]: 24

CC/C=C/C=C/C=C/C=C/C=C/OCC(O)CO (racemic)
Activity [1]: Toxic | Activity [2]: Toxic | Activity [3]: 799 | Activity [4]: 561 | Activity [5]: 204 | Activity [6]: 184 | Activity [7]: Toxic | Activity [8]: Toxic | Activity [9]: Toxic | Activity [18]: Toxic | Activity [19]: Toxic | Activity [20]: Toxic
